The target of one test is T1, wildtype LRRK2 (Homo sapiens, UniProt Q5S007).
T1 construct: expressed in transfected cells; host or cells: HEK293 (ATCC CRL-1573), transient transfection, mammalian expression vector with ubiquitin promoter
Description: LRRK2 degradation assay, HiBit-tagged wildtype LRRK2 expressed from plasmid in HEK293 cells (Nano-Glo Dual-Luciferase). Format: cell-based. As to conditions: 24 hours; for Dmax: read-out: **WT Dmax (%); for DC50: read-out: *WT DC50. An excerpt: (§1) Exemplary Assay for Testing LRRK2 Degradation Driven by Exemplary Hetero-Bifunctional Compounds Designed to Target LRRK2
(§2) The assay measures the degradation of wildtype and G2019S LRRK2 tagged with a HiBit tag on the C-terminus of the protein that was expressed from a mammalian expression vector, driven by the ubiquitin promoter in HEK293 cells. Each compound dose-response was repeated on two separate days, on three separate plates each day.
(§3) Plasmid Preparation. Transfection mixes were assembled as follows and incubated for 30 minutes at room temperature. In a 15 mL tube, 5.25 mL Opti-MEM (no additions) was mixed with 17 μL Firefly Luciferase plasmid at 1 μg/μL and 158 μL WT plasmid DNA at 1 μg/μL (175 μg total DNA) were mixed by flicking. In a new 15 mL tube, 5.25 mL OptiMEM was mixed with 17 μL Firefly Luciferase plasmid at 1 μg/μL and 158 μL G2019S plasmid DNA at 1 μg/μL (175 μg total DNA) were mixed by flicking. X-tremeGene HP was mixed thoroughly using a vortex. Next, 175 μL was added to each tube and flicked to mix. Both tubes were left to incubate for 30 minutes at room temperature.
(§4) While the transfection mixes were incubating, HEK293 cells (acquired from ATCC; ATCC CRL-1573) were harvested with trypsin. Once cells are detached, the cells were resuspended in 12 mL OptiMEM+5% FBS and transferred to a 50 mL tube. The cells were mixed well and counted. Using OptiMEM+5% FBS, the cells were diluted in two 250 mL conical tubes at 0.71×10^6 cells/mL in 70 mL. One tube was labeled “WT” and the other “G2019S”. The WT and G2019S transfection mixes were added dropwise to the corresponding 250 mL tubes. The tubes were mixed first by pipetting then by swirling. The tubes were incubated at room temperature for at least 5 minutes.
(§5) Each tube was swirled before dispensing and after every three plates. Seventy microliters of cells were dispensed with WT or G2019S DNA to seven plates each. Three plates of each were tested with compound plate one (preparation described below) and three plates of each were tested with compound plate two (preparation described below). The first plate from each set served as a “prime” plate and was not used to test compounds. Each plate was incubated in the hood for 10 minutes before placing in the 37° C. incubator for 24 hours.
(§6) Preparation of Compound and Assay Plates. Two compound plates were made using 96 well polypropylene plates. Compounds were made up at 10 mM and were diluted to 1 mM in 30 μL. Each dose response curve included a well of DMSO, as a negative control and for normalization, and a well of 0.5 μM of Compound 4 as a positive control. In addition to seven test compounds, each plate also included a dose response of Compound 4. The compound plates were spun down along at 1200 rpm for 2 minutes.
(§7) The two compound plates were then mixed and 2 μL was diluted in intermediate plates having 248 μL of Opti-Mem in each well. Next, 10 μL diluted compounds from the intermediate plates were added to each test plate (three WT and three G2019S plates per compound plate for a total of 12 assay plates). The plates were incubated for 24 hours at 37° C.
(§8) All assay plates and all Nano-Glo Dual-Luciferase Reporter Assay System components (except for the DLR substrate) were equilibrated to room temperature. Next, the luciferase buffer was mixed with the lyophilized amber bottle until fully dissolved, and 75 μL of the luciferase mixture was added to each well of each assay plate. The assay plates were incubated for 10 minutes at room temperature with shaking for at least 5 minutes, and then read on a plate reader.
(§9) Developing Plates and Analyzing Data. One milliliter of DLR substrate and 1 mL LgBiT Protein were added to the Stop and Glo buffer, and 75 μL of the mixture was added to each well of each plate. Optically clear seals were added to each plate and each plate was incubated for 20 minutes with shaking for at least 10 minutes, and then read on a plate reader. […]
(HiBiT is a short tag that completes a luciferase, so light tracks the accessible tagged protein.)

In another test the target is T2, G2019S LRRK2 (Homo sapiens, UniProt Q5S007, G2019S).
T2 construct: expressed in transfected cells; host or cells: HEK293 (ATCC CRL-1573), transient transfection, mammalian expression vector with ubiquitin promoter
T2 sequence (Q5S007 whole entry G2019S): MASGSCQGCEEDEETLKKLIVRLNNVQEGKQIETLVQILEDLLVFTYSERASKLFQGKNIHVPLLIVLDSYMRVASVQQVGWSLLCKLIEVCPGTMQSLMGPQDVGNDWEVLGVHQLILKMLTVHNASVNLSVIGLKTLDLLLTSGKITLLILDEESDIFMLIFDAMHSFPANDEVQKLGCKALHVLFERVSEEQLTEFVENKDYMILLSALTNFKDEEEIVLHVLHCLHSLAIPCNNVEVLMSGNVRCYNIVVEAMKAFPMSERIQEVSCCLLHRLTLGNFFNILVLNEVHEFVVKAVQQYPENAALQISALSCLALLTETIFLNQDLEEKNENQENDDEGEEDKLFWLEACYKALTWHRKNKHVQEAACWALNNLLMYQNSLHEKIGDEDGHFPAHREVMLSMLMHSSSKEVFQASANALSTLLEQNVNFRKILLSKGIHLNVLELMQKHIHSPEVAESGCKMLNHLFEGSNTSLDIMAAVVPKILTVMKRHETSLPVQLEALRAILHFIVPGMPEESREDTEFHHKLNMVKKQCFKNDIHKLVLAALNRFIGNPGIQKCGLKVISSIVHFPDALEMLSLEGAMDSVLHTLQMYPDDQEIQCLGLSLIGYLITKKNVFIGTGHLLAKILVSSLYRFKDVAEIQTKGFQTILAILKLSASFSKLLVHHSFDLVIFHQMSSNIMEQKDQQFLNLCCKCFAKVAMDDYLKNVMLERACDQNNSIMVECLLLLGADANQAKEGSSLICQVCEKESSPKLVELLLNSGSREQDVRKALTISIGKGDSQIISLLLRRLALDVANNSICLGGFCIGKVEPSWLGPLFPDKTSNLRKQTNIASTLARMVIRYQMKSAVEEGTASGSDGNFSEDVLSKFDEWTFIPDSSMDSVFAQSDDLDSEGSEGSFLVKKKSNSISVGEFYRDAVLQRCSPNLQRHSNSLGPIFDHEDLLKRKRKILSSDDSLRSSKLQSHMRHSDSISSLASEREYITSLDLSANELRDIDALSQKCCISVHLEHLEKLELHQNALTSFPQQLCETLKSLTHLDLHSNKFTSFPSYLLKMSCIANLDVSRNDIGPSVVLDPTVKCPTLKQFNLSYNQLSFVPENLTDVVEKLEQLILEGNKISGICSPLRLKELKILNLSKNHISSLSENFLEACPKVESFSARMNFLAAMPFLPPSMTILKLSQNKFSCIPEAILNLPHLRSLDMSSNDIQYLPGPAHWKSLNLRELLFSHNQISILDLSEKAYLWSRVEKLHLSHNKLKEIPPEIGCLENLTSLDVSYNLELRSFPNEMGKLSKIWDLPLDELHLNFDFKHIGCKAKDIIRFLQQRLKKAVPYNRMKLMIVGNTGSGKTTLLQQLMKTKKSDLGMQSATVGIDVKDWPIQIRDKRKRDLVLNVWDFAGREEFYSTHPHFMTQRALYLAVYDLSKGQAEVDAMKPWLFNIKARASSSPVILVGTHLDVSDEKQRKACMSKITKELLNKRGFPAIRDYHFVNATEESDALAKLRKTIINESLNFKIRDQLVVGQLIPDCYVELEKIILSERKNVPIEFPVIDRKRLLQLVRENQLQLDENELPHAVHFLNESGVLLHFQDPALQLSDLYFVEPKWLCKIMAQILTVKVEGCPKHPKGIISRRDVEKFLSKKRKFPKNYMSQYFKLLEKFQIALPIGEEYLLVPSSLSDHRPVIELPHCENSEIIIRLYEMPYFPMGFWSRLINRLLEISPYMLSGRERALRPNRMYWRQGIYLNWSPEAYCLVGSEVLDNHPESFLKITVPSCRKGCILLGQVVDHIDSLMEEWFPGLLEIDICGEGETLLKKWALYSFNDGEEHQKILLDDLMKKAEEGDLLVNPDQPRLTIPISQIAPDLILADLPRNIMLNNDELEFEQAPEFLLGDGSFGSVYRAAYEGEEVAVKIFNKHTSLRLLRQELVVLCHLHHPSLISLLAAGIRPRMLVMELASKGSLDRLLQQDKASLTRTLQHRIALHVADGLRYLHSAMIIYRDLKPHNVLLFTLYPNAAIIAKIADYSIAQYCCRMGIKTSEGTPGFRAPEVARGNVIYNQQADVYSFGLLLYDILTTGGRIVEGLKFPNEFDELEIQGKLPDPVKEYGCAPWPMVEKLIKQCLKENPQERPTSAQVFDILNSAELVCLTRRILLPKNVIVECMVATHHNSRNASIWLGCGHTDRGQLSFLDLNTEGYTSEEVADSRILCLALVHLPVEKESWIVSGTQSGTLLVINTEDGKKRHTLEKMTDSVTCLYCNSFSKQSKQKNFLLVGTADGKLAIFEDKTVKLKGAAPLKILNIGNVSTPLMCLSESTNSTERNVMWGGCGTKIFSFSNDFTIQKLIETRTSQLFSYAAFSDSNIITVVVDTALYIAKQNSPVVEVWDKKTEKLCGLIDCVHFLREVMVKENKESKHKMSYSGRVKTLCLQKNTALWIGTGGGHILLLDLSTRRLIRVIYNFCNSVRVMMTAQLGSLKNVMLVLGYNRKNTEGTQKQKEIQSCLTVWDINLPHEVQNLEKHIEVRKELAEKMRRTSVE
The test can be described thus: LRRK2 degradation assay, HiBit-tagged G2019S LRRK2 expressed from plasmid in HEK293 cells (Nano-Glo Dual-Luciferase). Format: cell-based. Particulars: 24 hours.
Text: as §1, §2, §3, §4, §5, §6, §7, §8, §9

Where [1] appears, read: HiBit-tagged wildtype LRRK2 in HEK293 cells.
Setting [2] is: HiBit-tagged G2019S LRRK2 in HEK293 cells.
Setting [3] is: HiBit-tagged wildtype LRRK2, HEK293 cells.
Where [4] appears, read: HiBit-tagged G2019S LRRK2, HEK293 cells.

Like-named read-outs stand apart in the source and are kept apart here.

T1 sequence (Q5S007 whole entry): as the sequence (Q5S007 whole entry G2019S) above, with S2019G counted along it

One may read the Dmax as the greatest extent of degradation seen. A word on the DC50: it is the concentration at which degradation of the target reaches its halfway point. As for `CC1(Oc2ccc3[nH]nc(-c4ccnc(N5CCC(CN6CCN(C(=O)C7CCN(c8ccc9c(c8)C(=O)N(C8CCC(=O)NC8=O)C9=O)CC7)CC6)CC5)c4)c3c2)CC1` (stereo not shown) [Compound 95, 2-(2,6-dioxopiperidin-3-yl)-5-(4-{4-[(1-{4-[5-(1-methylcyclopropoxy)-1H-indazol-3-yl]pyridin-2-yl}piperidin-4-yl)methyl]piperazine-1-carbonyl}piperidin-1-yl)-2,3-dihydro-1H-isoindole-1,3-dione], the Dmax at wildtype LRRK2 (setting [1]) and at G2019S LRRK2 (setting [2]) was 50 to 70% each time. The DC50 on wildtype LRRK2 (setting [1]) and at G2019S LRRK2 (setting [2]) was less than 10 nM in each case.

On to `CC1(Oc2ccc3[nH]nc(-c4ccnc(N5CCC(Cc6ccc(CC7CCN(c8ccc9c(c8)C(=O)N(C8CCC(=O)NC8=O)C9=O)CC7)cc6)CC5)c4)c3c2)CC1` (stereo not shown) [Compound 173, 2-(2,6-dioxo-3-piperidyl)-5-[4-[[4-[[1-[4-[5-(1-methylcyclopropoxy)-1H-indazol-3-yl]-2-pyridyl]-4-piperidyl]methyl]phenyl]methyl]-1-piperidyl]isoindoline-1,3-dione], for which the half-maximal degradation concentration (DC50) on wildtype LRRK2 (setting [3]) and at G2019S LRRK2 (setting [4]) was no less than 100 nM in each case.

On to `C[C@H]1CN(c2cc(-c3n[nH]c4ccc(OC5(C)CC5)cc34)ncn2)CCN1CC1CCN(CCC2CCN(c3ccc4c(c3)C(=O)N(C3CCC(=O)NC3=O)C4=O)CC2)CC1` (stereo partly drawn) [Compound 159, 2-(2,6-dioxo-3-piperidyl)-5-[4-[2-[4-[[(2S)-2-methyl-4-[6-[5-(1-methylcyclopropoxy)-1H-indazol-3-yl]pyrimidin-4-yl]piperazin-1-yl]methyl]-1-piperidyl]ethyl]-1-piperidyl]isoindoline-1,3-dione], for which, at wildtype LRRK2 (setting [3]), the greatest degradation seen (Dmax) is less than 50% and the DC50 is less than 10 nM. For the same compound, at G2019S LRRK2 (setting [4]), the DC50 was less than 10 nM and the Dmax lay in the range of 50 to 70%.

On to `CC1(Oc2ccc3[nH]nc(-c4cc(N5CCC(CN6CCN(CC7CCN(c8ccc9c(c8)C(=O)N(C8CCC(=O)NC8=O)C9=O)CC7)CC6)CC5)ccn4)c3c2)CC1` (stereo not shown) [Compound 98, 2-(2,6-dioxo-3-piperidyl)-5-[4-[[4-[[1-[2-[5-(1-methylcyclopropoxy)-1H-indazol-3-yl]-4-pyridyl]-4-piperidyl]methyl]piperazin-1-yl]methyl]-1-piperidyl]isoindoline-1,3-dione], for which the DC50 at wildtype LRRK2 (setting [1]) and on G2019S LRRK2 (setting [2]) was no less than 100 nM in each case.

As for `CC1(Oc2ccc3[nH]nc(-c4ccnc(N5CC6(CN(CC7CCN(CC8CCN(c9ccc%10c(c9)C(=O)N(C9CCC(=O)NC9=O)C%10=O)CC8)CC7)C6)C5)c4)c3c2)CC1` (stereo not shown) [Compound 161, 2-(2,6-dioxo-3-piperidyl)-5-[4-[[4-[[2-[4-[5-(1-methylcyclopropoxy)-1H-indazol-3-yl]-2-pyridyl]-2,6-diazaspiro[3.3]heptan-6-yl]methyl]-1-piperidyl]methyl]-1-piperidyl]isoindoline-1,3-dione], the greatest degradation seen (Dmax) on wildtype LRRK2 (setting [3]) and at G2019S LRRK2 (setting [4]) was 50 to 70% each time. The half-maximal degradation concentration (DC50) on wildtype LRRK2 (setting [3]) and at G2019S LRRK2 (setting [4]) was 10 to 50 nM each time.

Consider `CC1(Oc2ccc3[nH]nc(-c4cc(N5CCN(CC67CC(CN8CCN(c9ccc%10c(c9)C(=O)N(C9CCC(=O)NC9=O)C%10=O)CC8)(C6)C7)CC5)ncn4)c3c2)CC1` (stereo not shown) [Compound 124, 2-(2,6-dioxo-3-piperidyl)-5-[4-[[3-[[4-[6-[5-(1-methylcyclopropoxy)-2H-indazol-3-yl]pyrimidin-4-yl]piperazin-1-yl]methyl]-1-bicyclo[1.1.1]pentanyl]methyl]piperazin-1-yl]isoindoline-1,3-dione], for which, on wildtype LRRK2 (setting [1]), the maximal degradation (Dmax) was less than 50% and the DC50 was less than 10 nM. On G2019S LRRK2 (setting [2]), this compound registered a DC50 of 10 to 50 nM and a Dmax of less than 50%.

In the case of `CC1(Oc2ccc3[nH]nc(-c4cc(N5CC(CN6CCN(CC7CCN(c8ccc9c(c8)C(=O)N(C8CCC(=O)NC8=O)C9=O)CC7)CC6)C5)ncn4)c3c2)CC1` (stereo not shown) [Compound 129, 2-(2,6-dioxo-3-piperidyl)-5-[4-[[4-[[1-[6-[5-(1-methylcyclopropoxy)-1H-indazol-3-yl]pyrimidin-4-yl]azetidin-3-yl]methyl]piperazin-1-yl]methyl]-1-piperidyl]isoindoline-1,3-dione], on wildtype LRRK2 (setting [1]), the Dmax is no less than 70% and the DC50 was less than 10 nM. On G2019S LRRK2 (setting [2]), this compound showed a 50% degradation concentration (DC50) of less than 10 nM and a Dmax of no less than 70%.

As for `CC1(Oc2ccc3[nH]nc(-c4cc(N5CCC(CN6CCN(CC7CN(c8ccc9c(c8)C(=O)N(C8CCC(=O)NC8=O)C9=O)C7)CC6)CC5)ncn4)c3c2)CC1` (stereo not shown) [Compound 133, 2-(2,6-dioxo-3-piperidyl)-5-[3-[[4-[[1-[6-[5-(1-methylcyclopropoxy)-1H-indazol-3-yl]pyrimidin-4-yl]-4-piperidyl]methyl]piperazin-1-yl]methyl]azetidin-1-yl]isoindoline-1,3-dione], the maximal degradation (Dmax) on wildtype LRRK2 (setting [1]) and at G2019S LRRK2 (setting [2]) was 50 to 70% each time. Also, the half-maximal degradation concentration (DC50) at wildtype LRRK2 (setting [1]) and at G2019S LRRK2 (setting [2]) was less than 10 nM throughout.

`C[C@H]1CN(c2cc(-c3n[nH]c4ccc(OC5(C)CC5)cc34)ncn2)CCN1CC1CCN(CCCOc2cccc3c2C(=O)N(C2CCC(=O)NC2=O)C3=O)CC1` (stereo partly drawn) [Compound 139, 2-(2,6-dioxo-3-piperidyl)-4-[3-[4-[[(2S)-2-methyl-4-[6-[5-(1-methylcyclopropoxy)-2H-indazol-3-yl]pyrimidin-4-yl]piperazin-1-yl]methyl]-1-piperidyl]propoxy]isoindoline-1,3-dione]: at wildtype LRRK2 (setting [1]), the maximal degradation (Dmax) is less than 50% and the DC50 fell in the range of 10 to 50 nM. For the same compound, on G2019S LRRK2 (setting [2]), the DC50 fell in the range of 10 to 50 nM and the maximal degradation (Dmax) was less than 50%.

With `CC1(Oc2ccc3[nH]nc(-c4cc(N5CCN(C[C@@H]6CN(CC7CCN(c8ccc9c(c8)C(=O)N(C8CCC(=O)NC8=O)C9=O)CC7)CCO6)CC5)ncn4)c3c2)CC1` (stereo partly drawn) [Compound 156, 2-(2,6-dioxo-3-piperidyl)-5-[4-[[(2R)-2-[[4-[6-[5-(1-methylcyclopropoxy)-1H-indazol-3-yl]pyrimidin-4-yl]piperazin-1-yl]methyl]morpholin-4-yl]methyl]-1-piperidyl]isoindoline-1,3-dione], at wildtype LRRK2 (setting [3]), the Dmax lay within 50 to 70% and the 50% degradation concentration (DC50) is less than 10 nM. At G2019S LRRK2 (setting [4]), this compound displayed a half-maximal degradation concentration (DC50) of less than 10 nM and a Dmax of less than 50%.

Consider `CC1(Oc2ccc3[nH]nc(-c4cc(N5CCC(C(=O)N6CCC(CC7CCN(c8ccc9c(c8)C(=O)N(C8CCC(=O)NC8=O)C9=O)CC7)CC6)CC5)ncn4)c3c2)CC1` (stereo not shown) [Compound 88, 2-(2,6-dioxo-3-piperidyl)-5-[4-[[1-[1-[6-[5-(1-methylcyclopropoxy)-1H-indazol-3-yl]pyrimidin-4-yl]piperidine-4-carbonyl]-4-piperidyl]methyl]-1-piperidyl]isoindoline-1,3-dione], for which, on wildtype LRRK2 (setting [1]), the Dmax was less than 50% and the DC50 lay in the range of 10 to 50 nM. For the same compound, at G2019S LRRK2 (setting [2]), the DC50 lay in the range of 10 to 50 nM and the maximal degradation (Dmax) was 50 to 70%.

Source of the values: patent US12559506B2, “Indazole based compounds and associated methods of use” (Arvinas Operations, Inc., priority 2021, dated 2026).
